Literature values as cited in US7056534B2, “Coated potassium chloride granules and tablets” (Upsher-Smith Laboratories, Inc., priority 2001, dated 2006).
Like-named read-outs stand apart in the source and are kept apart here.

## [Cl-].[K+] [Potassium chloride]
acetone
  Solubility: insoluble
Boiling water
  Volume of solvent in which 1 gram dissolves: 1.8 mL
ether
  Solubility: insoluble
Ethyl alcohol
  Volume of solvent in which 1 gram dissolves: about 250 ml
glycerol
  Volume of solvent in which 1 gram dissolves: 14 mL
water
  Volume of solvent in which 1 gram dissolves: 2.8 mL
